Assay results taken from patent publication EP4568957B1, “SUBSTITUTED PHENYL OXOOXAZOLYL PIPERIDINE DIONE COMPOUNDS” (Bristol-Myers Squibb Company, priority 2023, dated 2025).

Experiments:
Type in all cases: cell-based
[1] = target: IKZF3 Aiolos (Homo sapiens, UniProt Q96SW2+Q9UKT9); assay: Human CD8+ T Cell Reprogramming Assay (method headed Human CD8+ T Cell Degradation Assay); set-up: Foxp3-BV421, HELIOS-PE-Cy7, EOS-PE, IKAROS-PECF594, AIOLOS-AF647; endogenous in cells; host or cells: human PBMC from healthy donors (CD8+ T cells gated by flow cytometry); conditions: for IKZF3* Aiolos max % deg. observed: Table E summary, Human CD8+ T Cell Reprogramming Assay (D-1); for DC50 / IKZF3 Aiolos Maximum Observed Degradation: human PBMC, CD8+ T cells, 24 hours; for DC50: vs DMSO alone
Sequence of IKZF3 Aiolos (Q9UKT9 whole entry): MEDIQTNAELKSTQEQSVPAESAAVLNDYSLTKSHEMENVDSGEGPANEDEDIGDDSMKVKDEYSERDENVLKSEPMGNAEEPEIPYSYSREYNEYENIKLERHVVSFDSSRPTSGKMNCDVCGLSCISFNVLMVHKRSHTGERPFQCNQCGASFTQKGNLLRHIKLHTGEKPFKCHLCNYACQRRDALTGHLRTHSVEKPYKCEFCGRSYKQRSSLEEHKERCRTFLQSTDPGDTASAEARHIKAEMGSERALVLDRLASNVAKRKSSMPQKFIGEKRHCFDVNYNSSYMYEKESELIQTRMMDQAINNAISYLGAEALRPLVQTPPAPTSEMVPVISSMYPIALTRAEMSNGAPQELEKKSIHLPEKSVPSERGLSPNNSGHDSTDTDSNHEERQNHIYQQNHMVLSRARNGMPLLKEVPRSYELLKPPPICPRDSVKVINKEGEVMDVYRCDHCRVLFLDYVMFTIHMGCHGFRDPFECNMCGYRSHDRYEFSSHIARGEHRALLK
Sequence of IKZF3 Aiolos (Q96SW2 whole entry): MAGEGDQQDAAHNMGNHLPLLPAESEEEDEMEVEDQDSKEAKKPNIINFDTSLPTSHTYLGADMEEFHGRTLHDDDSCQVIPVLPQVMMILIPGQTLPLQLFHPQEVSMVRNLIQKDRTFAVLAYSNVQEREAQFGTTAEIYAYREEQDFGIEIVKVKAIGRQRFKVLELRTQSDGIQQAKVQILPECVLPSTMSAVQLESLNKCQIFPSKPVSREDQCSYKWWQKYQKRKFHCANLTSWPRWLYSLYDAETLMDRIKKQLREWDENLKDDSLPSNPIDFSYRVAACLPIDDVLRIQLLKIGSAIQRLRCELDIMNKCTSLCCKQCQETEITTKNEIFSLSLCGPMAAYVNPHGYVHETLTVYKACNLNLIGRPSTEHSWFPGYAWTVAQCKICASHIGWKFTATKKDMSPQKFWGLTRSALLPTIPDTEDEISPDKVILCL
Sequence of IKZF3 Aiolos (Q16531 whole entry partner): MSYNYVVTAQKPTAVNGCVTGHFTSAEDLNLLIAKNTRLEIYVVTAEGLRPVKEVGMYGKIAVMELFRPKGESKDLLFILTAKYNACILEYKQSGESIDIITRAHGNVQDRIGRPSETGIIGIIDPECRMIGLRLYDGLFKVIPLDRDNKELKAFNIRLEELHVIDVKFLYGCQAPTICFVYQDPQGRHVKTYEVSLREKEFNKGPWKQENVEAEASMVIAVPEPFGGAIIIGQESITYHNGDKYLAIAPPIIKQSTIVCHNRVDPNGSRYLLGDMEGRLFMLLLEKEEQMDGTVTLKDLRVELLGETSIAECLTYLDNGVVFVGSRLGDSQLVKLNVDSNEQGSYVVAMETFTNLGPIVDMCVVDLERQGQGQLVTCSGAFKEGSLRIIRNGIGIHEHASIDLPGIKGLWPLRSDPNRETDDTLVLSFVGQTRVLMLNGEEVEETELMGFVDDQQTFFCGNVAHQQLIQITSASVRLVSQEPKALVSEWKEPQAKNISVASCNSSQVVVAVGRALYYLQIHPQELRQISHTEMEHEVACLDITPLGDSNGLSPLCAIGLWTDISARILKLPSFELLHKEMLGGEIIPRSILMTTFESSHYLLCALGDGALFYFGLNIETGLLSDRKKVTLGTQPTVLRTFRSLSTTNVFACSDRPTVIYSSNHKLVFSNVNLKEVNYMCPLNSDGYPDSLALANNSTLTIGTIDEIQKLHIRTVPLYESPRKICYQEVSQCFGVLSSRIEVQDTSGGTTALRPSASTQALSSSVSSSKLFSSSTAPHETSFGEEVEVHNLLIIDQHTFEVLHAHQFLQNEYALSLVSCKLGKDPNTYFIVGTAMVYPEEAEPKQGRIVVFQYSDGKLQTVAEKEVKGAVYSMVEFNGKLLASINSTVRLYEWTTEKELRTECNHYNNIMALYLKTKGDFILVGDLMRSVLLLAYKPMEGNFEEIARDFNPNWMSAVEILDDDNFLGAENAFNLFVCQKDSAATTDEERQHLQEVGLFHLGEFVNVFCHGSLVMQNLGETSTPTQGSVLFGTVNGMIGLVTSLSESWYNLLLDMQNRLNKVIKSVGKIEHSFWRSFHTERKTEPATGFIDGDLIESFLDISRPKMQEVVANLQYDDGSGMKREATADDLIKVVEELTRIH
Procedure: (§1) Cryopreserved healthy donor human peripheral blood mononuclear cells (PBMC) from healthy donors were thawed and seeded at 500,000 cells/well of 96-well round bottom plates in RPMI 1640 media (Gibco) supplemented with 10% FBS, Pen/Strep (Gibco), MEM-NEAA (Gibco), and sodium pyruvate (Gibco). Cells were treated with titrated doses of compound for 24 hours at 37 °C, 5% CO2, before analyzing by flow cytometry.
(§2) For flow cytometry staining, cells were washed twice with flow cytometry staining buffer (Thermo Fisher) and incubated in Human Tru-stain Fc block (Biolegend) for 10 minutes before adding eFluor780 viability dye (Thermo Fisher) and surface marker antibody cocktail containing LD-eFluor780, CD3-BUV-395, CD4-BUV805, CD8-FITC, and CD25-BV605 for 30 minutes at 4 °C, Cells were then fixed and permeabilized by incubation with permeabilization buffer (eBioscience FoxP3 buffer set 00-5523-00) for 30 minutes at 4 °C as per the kit manufacturer's instructions. Cells were washed twice with the Perm/Wash buffer supplied in the kit as per the manufacturer's instructions and incubated overnight at 4 °C with an intracellular antibody cocktail comprised of antibodies specific for the transcription factors (i.e. , Foxp3-BV421, HELIOS-PE-Cy7, EOS-PE, IKAROS-PECF594, AIOLOS-AF647). Cells were washed twice with Perm/Wash buffer and resuspended in flow cytometry staining buffer (Thermo Fisher) prior to acquisition. Sample acquisition and analysis was performed using a BD LSRFortessa (BD Biosciences) flow cytometer. Single-stain controls for each fluorochrome were prepared using UltraComp eBead Compensation Beads (Thermo Fisher). Data were analyzed using FlowJo version 10 and GraphPad Prism Software. TABLE D-1

[2] = target: IKZF1 Ikaros (Homo sapiens, UniProt Q13422+Q96SW2); assay: as above; set-up: Foxp3-BV421, HELIOS-PE-Cy7, EOS-PE, IKAROS-PECF594, AIOLOS-AF647; endogenous in cells; host or cells: human PBMC from healthy donors (CD8+ T cells gated by flow cytometry); conditions: for IKZF1* Ikaros max % deg. observed: Table E summary, Human CD8+ T Cell Reprogramming Assay (D-1); for DC50 / IKZF1 Ikaros Maximum Observed Degradation: human PBMC, CD8+ T cells, 24 hours; for DC50: vs DMSO alone
Sequence of IKZF1 Ikaros (Q13422 whole entry): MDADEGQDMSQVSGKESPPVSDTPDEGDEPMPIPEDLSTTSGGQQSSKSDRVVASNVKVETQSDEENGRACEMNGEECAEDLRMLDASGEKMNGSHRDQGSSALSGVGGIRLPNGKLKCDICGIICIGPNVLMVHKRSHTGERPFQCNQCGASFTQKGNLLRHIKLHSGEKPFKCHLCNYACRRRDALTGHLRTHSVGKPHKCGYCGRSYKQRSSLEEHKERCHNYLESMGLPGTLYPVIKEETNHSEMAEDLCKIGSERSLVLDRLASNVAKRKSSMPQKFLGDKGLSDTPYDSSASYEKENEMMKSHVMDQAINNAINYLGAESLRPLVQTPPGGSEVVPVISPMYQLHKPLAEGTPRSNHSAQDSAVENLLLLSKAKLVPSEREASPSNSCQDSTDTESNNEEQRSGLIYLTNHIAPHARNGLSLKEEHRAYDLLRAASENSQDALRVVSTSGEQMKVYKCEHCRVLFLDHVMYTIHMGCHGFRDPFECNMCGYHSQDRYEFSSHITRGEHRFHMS
Sequence of IKZF1 Ikaros (Q96SW2 whole entry): as the sequence (Q96SW2 whole entry) above
Sequence of IKZF1 Ikaros (Q16531 whole entry partner): as the sequence (Q16531 whole entry partner) above
Procedure: as §1, §2

[3] = target: IKZF2 Helios (Homo sapiens, UniProt Q96SW2+Q9UKS7); assay: Human Regulatory T Cell Reprogramming Assay; set-up: endogenous in cells; host or cells: primary human CD4+CD127lowCD25+ Treg cells from healthy leukopaks; conditions: CD4+CD127lowCD25+ Treg cells; for IKZF2 Helios max % deg. observed: 12-13 days with compound; for DC50: 12-13 days, vs DMSO alone
Sequence of IKZF2 Helios (Q9UKS7 whole entry): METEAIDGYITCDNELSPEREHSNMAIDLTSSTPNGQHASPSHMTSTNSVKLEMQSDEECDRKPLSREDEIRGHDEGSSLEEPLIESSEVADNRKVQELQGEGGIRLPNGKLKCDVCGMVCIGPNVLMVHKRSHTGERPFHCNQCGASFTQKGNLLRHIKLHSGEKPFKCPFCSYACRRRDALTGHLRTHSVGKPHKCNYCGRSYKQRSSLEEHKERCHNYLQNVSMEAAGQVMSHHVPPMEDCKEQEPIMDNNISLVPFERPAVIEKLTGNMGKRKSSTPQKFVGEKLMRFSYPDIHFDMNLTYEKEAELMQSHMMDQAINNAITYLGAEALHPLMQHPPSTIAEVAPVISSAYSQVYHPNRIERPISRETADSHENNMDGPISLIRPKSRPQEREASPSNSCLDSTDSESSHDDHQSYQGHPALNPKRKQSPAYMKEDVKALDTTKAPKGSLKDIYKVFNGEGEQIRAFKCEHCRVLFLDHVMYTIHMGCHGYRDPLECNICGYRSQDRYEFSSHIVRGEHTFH
Sequence of IKZF2 Helios (Q96SW2 whole entry): as the sequence (Q96SW2 whole entry) above
Sequence of IKZF2 Helios (Q16531 whole entry partner): as the sequence (Q16531 whole entry partner) above
Procedure: (§3) Human CD4^+ T cells were isolated from fresh healthy leukopaks (Stemcell Technologies) using the RosetteSep Human CD4^+ T cell enrichment cocktail (Stemcell Technologies) and Ficoll density gradient centrifugation. Leukopaks were diluted with an equal volume of phosphate-buffered saline (PBS [Gibco]) supplemented with 2% fetal bovine serum (FBS, VWR Lifescience) and incubated with RosetteSep Human CD4^+ T cell enrichment cocktail for 20 minutes before layering on Ficoll-Paque Plus solution (GE Health Care). The cell-rich interface layer was harvested and washed twice with PBS supplemented with 2% FBS. Regulatory T cells were then isolated manually using the EasySep Human CD4^+CD127^lowCD25^+ Regulatory T cell isolation kit (Stemcell Technologies) according to the manufacturer's instructions. Cells were rested overnight in Roswell Park Memorial Institute (RPMI) 1640 media (Gibco) supplemented with 10% FBS, Pen/Strep (Gibco), MEM-NEAA (Gibco), and sodium pyruvate (Gibco) in a humidified incubator (37 °C, 5% CO2). Cells were then stained for CD4 (clone: RPA-T4, Biolegend), CD25 (clone: 2A3, BD Biosciences), and CD127 (clone: hIL-7R-M21, BD Biosciences). CD4^+CD127^lowCD25^+ cells were sorted on a BD FACS Aria Fusion sorter to a purity of 95%) or greater. Sorted cells were immediately used or cryopreserved for downstream assays.
(§4) Fresh or cryopreserved FACS-sorted CD4^+CD127^lowCD25^+ Treg cells were cultured at 25,000-50,000 cells/well of 96-well round bottom plates in RPMI 1640 media (Gibco) supplemented with 10% FBS, Pen/Strep (Gibco), MEM-NEAA (Gibco), and sodium pyruvate (Gibco). Cells were stimulated with Treg Xpander beads (Thermo Fisher) at cells-to-beads ratio of 1:4 in the presence of 500 U/mL recombinant human IL-2 (Proleukin). Compounds were added at titrated doses and cells were incubated at 37 °C, 5% CO2 for 12-13 days. Recombinant human IL-2 and compound were replenished every 2-3 days during the entire culture duration. On day 12 or 13, cells were restimulated with phorbol 12-myristate 13-acetate (PMA,) and ionomycin in the presence of the protein transport inhibitors brefeldin A and monensin (eBioscience Cell Stimulation Cocktail plus protein transport inhibitors, 500x, Catalog number 00-4975-93) before proceeding with flow cytometry staining and analysis.
(§5) For flow cytometry staining, cells were washed twice with flow cytometry staining buffer (Thermo Fisher) and incubated in Human Tru-stain Fc block (Biolegend) for 10 minutes before adding eFluor780 viability dye (Thermo Fisher) and surface marker antibody cocktail for 30 minutes at 4 °C. Cells were then fixed and permeabilized by incubation with FoxP3 transcription factor staining buffer (Thermo Fisher) for 30 minutes at 4 °C as per the kit manufacturer's instructions. Cells were washed twice with the Perm/Wash buffer supplied in the kit as per the manufacturer's instructions and incubated overnight at 4 °C with an intracellular antibody cocktail comprised of antibodies specific for the transcription factors shown in Table C. Cells were washed twice with Perm/Wash buffer and resuspended in flow cytometry staining buffer (Thermo Fisher) prior to acquisition. Sample acquisition and analysis was performed using a BD LSRFortessa (BD Biosciences) flow cytometer. Single stain controls for each fluorochrome were prepared using UltraComp eBead Compensation Beads (Thermo Fisher). Data were analyzed using FlowJo version 10 and GraphPad Prism Software. TABLE C

[4] = target: T1, IKZF4 Eos (Homo sapiens, UniProt Q96SW2+Q9H2S9); assay: Human Regulatory T Cell Reprogramming Assay; conditions: for DC50: 12-13 days, vs DMSO alone; for IKZF4*** Eos max % or deg. observed: Table E summary, Human Regulatory T Cell Reprogramming Assay (C-1)
T1 construct: endogenous in cells; host or cells: primary human CD4+CD127lowCD25+ Treg cells from healthy leukopaks
T1 sequence (Q9H2S9 whole entry): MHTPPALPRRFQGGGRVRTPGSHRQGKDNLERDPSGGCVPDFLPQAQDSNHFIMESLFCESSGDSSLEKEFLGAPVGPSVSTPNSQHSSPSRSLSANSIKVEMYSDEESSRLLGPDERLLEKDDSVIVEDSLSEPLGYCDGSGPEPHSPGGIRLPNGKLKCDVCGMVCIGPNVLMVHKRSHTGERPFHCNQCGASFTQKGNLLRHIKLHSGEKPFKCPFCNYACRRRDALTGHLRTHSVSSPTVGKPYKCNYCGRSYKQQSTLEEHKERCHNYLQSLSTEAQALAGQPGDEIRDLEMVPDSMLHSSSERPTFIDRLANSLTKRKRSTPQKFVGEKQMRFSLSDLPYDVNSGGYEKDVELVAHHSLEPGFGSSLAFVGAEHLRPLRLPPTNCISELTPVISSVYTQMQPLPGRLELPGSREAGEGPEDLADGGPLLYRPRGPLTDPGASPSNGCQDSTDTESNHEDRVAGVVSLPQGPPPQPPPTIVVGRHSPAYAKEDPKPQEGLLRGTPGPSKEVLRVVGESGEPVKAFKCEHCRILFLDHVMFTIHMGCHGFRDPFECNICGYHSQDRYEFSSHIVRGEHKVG
T1 sequence (Q96SW2 whole entry): as the sequence (Q96SW2 whole entry) above
T1 sequence (Q16531 whole entry partner): as the sequence (Q16531 whole entry partner) above
Procedure: as §3, §4, §5

| Compound | IKZF3* Aiolos max % deg. observed [1] | DC50 [1] | IKZF1* Ikaros max % deg. observed [2] | DC50 [2] | IKZF2 Helios max % deg. observed [3] | DC50 [3] | DC50 ([4]; CD4+CD127lowCD25+ Treg cells) | IKZF4*** Eos max % or deg. observed [4] | IKZF3 Aiolos Maximum Observed Degradation [1] | IKZF4 Eos max % deg. observed ([4]; CD4+CD127lowCD25+ Treg cells, 12-13 days with compound) | IKZF1 Ikaros Maximum Observed Degradation [2] |
| --- | --- | --- | --- | --- | --- | --- | --- | --- | --- | --- | --- |
| CO[C@H]1C[C@H](Oc2c(C)cc(-c3ccc(-c4cn(C5CCC(=O)NC5=O)c(=O)o4)c(F)c3)nc2N)C1 (relative stereo) [Example 2, trans 3-(5-(4-(6-amino-5-(3-methoxycyclobutoxy)-4-methylpyridin-2-yl)-2-fluorophenyl)-2-oxooxazol-3(2H)-yl)piperidine-2,6-dione] | 58% | 86 nM | 53% | 132 nM | 74% | 205 nM | 3 nM | 72% |  |  |  |
| Cc1cc(-c2ccc(-c3cn(C4CCC(=O)NC4=O)c(=O)o3)c(F)c2)nc(N)c1COC1CCOCC1 (stereo not drawn) [Example 5, 3-(5-(4-(6-Amino-4-methyl-5-(((tetrahydro-2H-pyran-4-yl)oxy)methyl)pyridin-2-yl)-2-fluorophenyl)-2-oxooxazol-3(2H)-yl)piperidine-2,6-dione] | 72% | 131 nM | 56% | 366 nM |  |  | 7 nM | 46% | 72% | 46% |  |
| COC1CCN(Cc2ccc(-c3ccc(-c4cn(C5CCC(=O)NC5=O)c(=O)o4)c(F)c3)nc2N)CC1 (stereo not drawn) [Example 4, 3-(5-(4-(6-amino-5-((4-methoxypiperidin-1-yl)methyl)pyridin-2-yl)-2-fluorophenyl)-2-oxooxazol-3(2H)-yl)piperidine-2,6-dione] | 77% | 18 nM | 80% | 15 nM | 66% | 155 nM | 4 nM | 80% |  |  |  |
| Cc1cc(-c2ccc(-c3cn(C4CCC(=O)NC4=O)c(=O)o3)c(F)c2)nc(N)c1NCC1CCOCC1 (stereo not drawn) [Example 3, 3-(5-(4-(6-amino-4-methyl-5-(((tetrahydro-2H-pyran-4-yl)methyl)amino)pyridin-2-yl)-2-fluorophenyl)-2-oxooxazol-3(2H)-yl)piperidine-2,6-dione] | 67% | 193 nM | 67% | 181 nM | 73% | 247 nM | 4 nM | 84% |  |  |  |
| O=C1CCC(n2cc(-c3ccccc3)oc2=O)C(=O)N1 (stereo not drawn) [Comparative Compound A, 3-(2-oxo-5-phenyloxazol-3(2H)-yl)piperidine-2,6-dione, reference compound] | 80% | 21 nM | 74% | 113 nM | 1% | > 1000 nM | > 1000 nM | 0% | 80% |  | 74% |
| O=C1CCC(n2cc(-c3ccc(Br)cc3F)oc2=O)C(=O)N1 (stereo not drawn) [Comparative Compound B, 3-(5-(4-bromo-2-fluorophenyl)-2-oxooxazol-3(2H)-yl)piperidine-2,6-dione, reference compound] | 0% | > 1000 nM | 17% | > 1000 nM | 6% | > 1000 nM | > 1000 nM | 11% | 0% |  | 17% |
| CC1(C)Cc2cc(-c3ccc(-c4cn(C5CCC(=O)NC5=O)c(=O)o4)c(F)c3)nc(N)c2O1 (stereo not drawn) [Example 1, 3-(5-(4-(7-amino-2,2-dimethyl-2,3-dihydrofuro[2,3-c]pyridin-5-yl)-2-fluorophenyl)-2-oxooxazol-3(2H)-yl)piperidine-2,6-dione] | 76% | 18 nM | 76% | 53 nM | 72% | 45 nM | 2 nM | 84% |  |  |  |
